Test results: article PMC7684578, “Isopedopeptins A–H: Cationic Cyclic Lipodepsipeptides from Pedobacter cryoconitis UP508 Targeting WHO Top-Priority Carbapenem-Resistant Bacteria” (ACS Chemical Biology, 2020)
≈ marks a conversion by molar mass, not a printed value. Starred links: 1 amine or outer side, 2 acyl side, 3 side chain; linkers in the order of their positions; H or OH if unused. Positions of bridges follow the written chain, without caps; N, C: chain ends. Non-standard residues stand in square brackets, D forms with d. Residues, ends and D or L forms follow the SMILES beside them. X4 = CC(C)CCC=CCCC[C@H](CC(=O)[*:1])O[*:2]; X6 = CC(C)CCCCC=CC[C@H](CC(=O)[*:1])O[*:2]; X5 = CC(C)CCCCCCC[C@H](CC(=O)[*:1])O[*:2]; X3 = CC(C)CCCCC[C@H](CC(=O)[*:1])O[*:2]; X7 = CCCCCCC=CC[C@H](CC(=O)[*:1])O[*:2]; X2 = CCCCCCC[C@H](CC(=O)[*:1])O[*:2]; Val(3-OH) = CC(C)(O)[C@H](N)C(=O)O; X1 = C/C=C(/N[*:1])C(=O)[*:2]; Dab = NCC[C@H](N)C(=O)O; Dap = NC[C@H](N)C(=O)O

How the values were obtained:
Assay in all cases: MIC, broth micro-dilution, primary panel
[1] = tested on: P. aeruginosa LMG6395T; format: cell-based, Pseudomonas aeruginosa; details: WT; for MIC: Pseudomonas aeruginosa, LMG6395T
Method: (§1) Isopedopeptin E (5): off-white solid; [α] D20 –36° (c 0.3 in methanol); UV (MeOH) λ max (log10 ε) 240 (3.8); 1H NMR (DMSO-d 6, 600 MHz), see Table S5; 13C NMR (DMSO-d 6, 150 MHz), see Table […]
(§2) Isopedopeptin F (6): off-white solid; [α] D20 –32° (c 0.05 in methanol); UV (MeOH) λ max (log10 ε) 240 (3.8); 1H NMR (DMSO-d 6, 600 MHz), see Table S6; 13C NMR (DMSO-d 6, 150 MHz), see Table […]
(§3) Isopedopeptin G (7): off-white solid; [α] D20 –49° (c 0.1 in methanol); UV (MeOH) λ max (log10 ε) 240 (4.0); 1H NMR (DMSO-d 6, 600 MHz), see Table S7; 13C NMR (DMSO-d 6, 150 MHz), see Table […]
(§4) Isopedopeptin H (8): off-white solid; [α] D20 –56° (c 0.2 in methanol); UV (MeOH) λ max (log10 ε) 240 (4.0); 1H NMR (DMSO-d 6, 600 MHz), see Table S8; 13C NMR (DMSO-d 6, 150 MHz), see Table […]
(§5) Minimal Inhibitory Concentration (MIC) against the primary panel of microorganisms.
(§6) The MIC for compounds 1–8 was measured by means of a broth micro-dilution method in 96-wells microtiter plates with the addition of E. coli LMG15862, LMG1041 T, E. cloacaeA. baumannii […]
(§7) H-29 and A. fumigatus J7, as test organisms. The test media were AM3 Broth (BD Difco Ltd) mixed with phosphate buffered saline (PBS, Amresco LLC, Solon, USA) in 1:4 ratio (E. coli, A. baumannii, E. cloacae, K. pneumoniae and P. aeruginosa), AM3 Broth mixed with PBS in 1:1 ratio (S. aureus), ME (A. fumigatus) and ISP2 (C. albicans). Prior to MIC determination, the cell concentration of tested bacterial/fungal pathogens was adjusted to ≅ 4 × 10^5 CFU/mL (acceptable range 2 – 6 × 10^5 CFU/mL). Cell concentration was confirmed by colony counting after diluting and plating the respective bacterial pathogen on VPA plates [VPA, 10 g Vegetable Peptone Broth (Oxoid Ltd., Basingstoke,UK), 15 g Bacto Agar (Difco Ltd, Tyrone) in 1 L deionised water] directly after each of MIC-tests. The cells of C. albicans were plated on ISP2 agar plates [ISP2, 15 g Bacto Agar (Difco Ltd) in 1 L deionised water] and respectively spores of A. fumigatus were plated on MEA plates.
(§8) Plates were, subsequently, incubated at 37 °C in the dark, and viable colonies counted after 16 to 24 h.
(§9) To estimate MIC values (concentration range between 0.05 and 50 µg/mL), solutions of the tested compounds (100, 10 and 1 and if needed 0.1 µg/mL in MeOH) were dispensed into wells of microtiter plate(s) and the solvent was evaporated in a fume-hood. Subsequently, suspensions of pathogen cells in the appropriate medium were dispensed to the wells of microtiter plates and the growth of pathogens were observed after 16 to 20 h of incubation at 37 °C in the dark. Positive controls were the respective pathogen cells suspended in untreated sterile media without addition of compounds(s) and negative controls were the media only. MIC values were defined as the lowest concentration of each compound with no visible growth of pathogen. All MIC tests were performed in triplicate and […]
(§10) MIC determination for compound 2 against an extended panel of bacterial strains.
(§11) Compound 2 was evaluated against a panel of Gram-negative bacteria (Hughes strain collection), including: A. baumannii ATCC 19606, wild-type; BM4454, multidrug-resistant clinical isolate; BM4652, efflux-defective derivative of BM4454; CH9622, colistin-resistant clinical isolate; E. coli ATCC 25922, wild-type; CH3130, efflux-defective ΔtolC mutant isogenic to ATCC 25922; D22, a drug-hypersensitive lpxC mutant of E. coli; CH3491, multidrug-resistant clinical isolate; CH9623 and CH9624, colistin-resistant clinical isolates carrying mcr-1; K. pneumoniae ATCC 13833, wild-type; […]
(§12) clinical isolate; CH9625 and CH9626, colistin-resistant clinical isolates; P. aeruginosa PAO1, wild-type; PAO750, efflux-defective mutant isogenic to PAO1. The in vitro antimicrobial activity of each compound was determined by measuring the MIC value using the broth micro-dilution technique in cation-adjusted Mueller-Hinton II broth (Becton-Dickinson, 212322) according to EUCAST and CLSI guidelines. Each compound prepared in MHII medium was dispensed into a 96-well round- […]

[2] = tested on: A. baumannii LMG1041T; format: cell-based; details: Acinetobacter baumannii, WT
Method: as §1, §2, §3, §4, §5, §6, §7, §8, §9, §10, §11, §12

[3] = tested on: A. fumigatus J7; format: cell-based; details: Aspergillus fumigatus
Method: as §1, §2, §3, §4, §5, §6, §7, §8, §9, §10, §11, §12

[4] = tested on: B. cereus CCUG7414T; format: cell-based; details: Bacillus cereus
Method: as §1, §2, §3, §4, §5, §6, §7, §8, §9, §10, §11, §12

[5] = tested on: C. albicans H-29; format: cell-based; details: Candida albicans, H29; WT
Method: as §1, §2, §3, §4, §5, §6, §7, §8, §9, §10, §11, §12

[6] = tested on: E. cloacae LMG2783T; format: cell-based; details: Enterobacter cloacae, WT
Method: as §1, §2, §3, §4, §5, §6, §7, §8, §9, §10, §11, §12

[7] = tested on: E. coli LMG15862; format: cell-based; details: Escherichia coli, β-lactam.
Method: as §1, §2, §3, §4, §5, §6, §7, §8, §9, §10, §11, §12

[8] = tested on: S. aureus LMG15975; format: cell-based; details: Staphylococcus aureus, LMG15975 / MRSA
Method: as §1, §2, §3, §4, §5, §6, §7, §8, §9, §10, §11, §12

Row | SMILES | MIC [1] [µg/mL] | MIC P. aeruginosa LMG6395T [1] [µg/mL] | MIC [2] [µg/mL] | MIC [3] [µg/mL] | MIC [4] [µg/mL] | MIC [5] [µg/mL] | MIC [6] [µg/mL] | MIC [7] [µg/mL] | MIC [8] [µg/mL]
1 | C/C=C1/NC(=O)[C@H](CCN)NC(=O)[C@H](CC(C)C)NC(=O)[C@H](CN)NC(=O)C[C@@H](CCCC=CCCC(C)C)OC(=O)[C@H](CC(=O)O)NC(=O)[C@H](C(C)C)NC(=O)[C@@H](Cc2ccccc2)NC(=O)[C@H](CN)NC(=O)[C@H]([C@@H](C)O)NC1=O [Compound 7, Isopedopeptin G] ([Dap]L[Dab][X1]T[Dap][dF]VD; linker N-C via X4) | 8 to 16 (≈ 7.01 to 14 µM) | 8 (≈ 7.01 µM) | 8 (≈ 7.01 µM) | > 32 | 16 (≈ 14 µM) | > 32 | 16 (≈ 14 µM) | 8 (≈ 7.01 µM) | 16 (≈ 14 µM)
2 | C/C=C1/NC(=O)[C@H](CCN)NC(=O)[C@H](CC(C)C)NC(=O)[C@H](CN)NC(=O)C[C@@H](CCCCCC(C)C)OC(=O)[C@H](CC(=O)O)NC(=O)[C@H](C(C)(C)O)NC(=O)[C@@H](Cc2ccccc2)NC(=O)[C@H](CN)NC(=O)[C@H]([C@@H](C)O)NC1=O [Compound 1, cyclo(3-hydroxy-9-methyldecanoyl-DAPA1-Leu-DABA-ABA-Thr-DAPA2-Phe-OHVal-Asp)] ([Dap]L[Dab][X1]T[Dap][dF][Val(3-OH)]D; linker N-C via X3) | 8 to 16 (≈ 7.07 to 14.1 µM) | 16 (≈ 14.1 µM) | 4 (≈ 3.54 µM) | > 32 | > 32 | 32 (≈ 28.3 µM) | 16 (≈ 14.1 µM) | 4 (≈ 3.54 µM) | > 32
3 | C/C=C1/NC(=O)[C@H](CCN)NC(=O)[C@H](CC(C)C)NC(=O)[C@H](CN)NC(=O)C[C@@H](CCCCCCC)OC(=O)[C@H](CC(=O)O)NC(=O)[C@H](C(C)C)NC(=O)[C@@H](Cc2ccccc2)NC(=O)[C@H](CN)NC(=O)[C@H]([C@@H](C)O)NC1=O [Compound 4, isopedopeptin D] ([Dap]L[Dab][X1]T[Dap][dF]VD; linker N-C via X2) | > 32 |  | 16 (≈ 14.5 µM) | > 32 | 32 (≈ 29.1 µM) | > 32 | 32 (≈ 29.1 µM) | 32 (≈ 29.1 µM) | > 32
4 | C/C=C1/NC(=O)[C@H](CCN)NC(=O)[C@H](CC(C)C)NC(=O)[C@H](CN)NC(=O)C[C@@H](CCCCCC(C)C)OC(=O)[C@H](CC(=O)O)NC(=O)[C@H](C(C)C)NC(=O)[C@@H](Cc2ccccc2)NC(=O)[C@H](CN)NC(=O)[C@H]([C@@H](C)O)NC1=O [Compound 5, Isopedopeptin E] ([Dap]L[Dab][X1]T[Dap][dF]VD; linker N-C via X3) | 32 (≈ 28.7 µM) |  | 32 (≈ 28.7 µM) | > 32 | 16 (≈ 14.3 µM) | > 32 | > 32 | > 32 | > 32
5 | C/C=C1/NC(=O)[C@H](CCN)NC(=O)[C@H](CC(C)C)NC(=O)[C@H](CN)NC(=O)C[C@@H](CCCCCCCC(C)C)OC(=O)[C@H](CC(=O)O)NC(=O)[C@H](C(C)(C)O)NC(=O)[C@@H](Cc2ccccc2)NC(=O)[C@H](CN)NC(=O)[C@H]([C@@H](C)O)NC1=O [Compound 6, Isopedopeptin F] ([Dap]L[Dab][X1]T[Dap][dF][Val(3-OH)]D; linker N-C via X5) | 32 (≈ 27.6 µM) |  | 16 (≈ 13.8 µM) | > 32 | 32 (≈ 27.6 µM) | > 32 | 32 (≈ 27.6 µM) | 16 (≈ 13.8 µM) | 32 (≈ 27.6 µM)
6 | C/C=C1/NC(=O)[C@H](CCN)NC(=O)[C@H](CC(C)C)NC(=O)[C@H](CN)NC(=O)C[C@@H](CC=CCCCCCC)OC(=O)[C@H](CC(=O)O)NC(=O)[C@H](C(C)(C)O)NC(=O)[C@@H](Cc2ccccc2)NC(=O)[C@H](CN)NC(=O)[C@H]([C@@H](C)O)NC1=O [Compound 3, isopedopeptin C] ([Dap]L[Dab][X1]T[Dap][dF][Val(3-OH)]D; linker N-C via X7) | 32 (≈ 28 µM) |  | 16 (≈ 14 µM) | > 32 | 32 (≈ 28 µM) | 32 (≈ 28 µM) | 32 (≈ 28 µM) | 16 (≈ 14 µM) | > 32
7 | C/C=C1/NC(=O)[C@H](CCN)NC(=O)[C@H](CC(C)C)NC(=O)[C@H](CN)NC(=O)C[C@@H](CC=CCCCCC(C)C)OC(=O)[C@H](CC(=O)O)NC(=O)[C@H](C(C)C)NC(=O)[C@@H](Cc2ccccc2)NC(=O)[C@H](CN)NC(=O)[C@H]([C@@H](C)O)NC1=O [Compound 8, Isopedopeptin H] ([Dap]L[Dab][X1]T[Dap][dF]VD; linker N-C via X6) | 16 (≈ 14 µM) |  | 16 (≈ 14 µM) | > 32 | 32 (≈ 28 µM) | > 32 | 16 (≈ 14 µM) | 16 (≈ 14 µM) | 16 (≈ 14 µM)
8 | C/C=C1/NC(=O)[C@H](CCN)NC(=O)[C@H](CC(C)C)NC(=O)[C@H](CN)NC(=O)C[C@@H](CCCCCCC)OC(=O)[C@H](CC(=O)O)NC(=O)[C@H](C(C)(C)O)NC(=O)[C@@H](Cc2ccccc2)NC(=O)[C@H](CN)NC(=O)[C@H]([C@@H](C)O)NC1=O [Compound 2, isopedopeptin B] ([Dap]L[Dab][X1]T[Dap][dF][Val(3-OH)]D; linker N-C via X2) | 8 to 16 (≈ 7.16 to 14.3 µM) | 16 (≈ 14.3 µM) | 8 (≈ 7.16 µM) | > 32 | > 32 | 32 (≈ 28.6 µM) | 32 (≈ 28.6 µM) | 8 (≈ 7.16 µM) | 32 (≈ 28.6 µM)
